For 26 compounds, EC50 results are on record in patent publication US20240294508A1, “RIP1 MODULATORS INCLUDING AZETIDINE CYCLIC UREAS, PREPARATIONS, AND USES THEREOF” (SIRONAX LTD., priority 2021, published 2024).

In general, EC50 refers to the concentration at which the effect is half-maximal.

SMILES strings stand for the structures.

In this test the test system is HT-29 cells. Put plainly: HT29 cells 0FBS assay in vitro: TNF-α/SMAC mimetic/zVAD-FMK induced necroptosis, CellTiter-Glo cell viability (RIP1 inhibitory activity). The note with it: Homo sapiens, FBS free medium, TNF-α (10 ng/ml) + SMAC mimetic (6 uM) + zVAD-FMK (10 μM), 20 hours, geometric mean EC50. In kind it is cell-based. In a few lines:
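Luminescent ATP read-out (CellTiter-Glo) gave viability of HT-29 cells after 20 h at 37° C in serum-free medium containing compound and a necroptosis cocktail of 10 ng/ml TNF-α, 6 uM SMAC mimetic and 10 μM zVAD-FMK. EC50s are geometric means of 10-point curves run in duplicate.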
A general note: Cellular ATP, detected with luciferase, serves as a proxy for viable cell number.
As to `Cc1nn(-c2cc(OC3CN(C(=O)N4N=CC[C@@H]4c4cc(F)cc(F)c4F)C3)c(F)cn2)c(C)c1C(=O)O` [Compound 105, (R)-1-(5-fluoro-4-((1-(5-(2,3,5-trifluorophenyl)-4,5-dihydro-1H-pyrazole-1-carbonyl)azetidin-3-yl)oxy)pyridin-2-yl)-3,5-dimethyl-1H-pyrazole-4-carboxylic acid], the EC50 was 1000 to 10000 nM. Next, `Cc1ncc(C2CC=NN2C(=O)N2CC(Oc3nc(-c4c(C)cnn4C)ccc3F)C2)s1` (centres unmarked) [Compound 106, (3-((6-(1,4-dimethyl-1H-pyrazol-5-yl)-3-fluoropyridin-2-yl)oxy)azetidin-1-yl)(5-(2-methylthiazol-5-yl)-4,5-dihydro-1H-pyrazol-1-yl)methanone]: 0.1 to 100 nM. Next, `Cc1ncc(C2CC=NN2C(=O)N2CC(Oc3cc(-c4c(C)c(N)nn4C)ncc3F)C2)s1` (centres unmarked) [Compound 107, (3-((2-(3-amino-1,4-dimethyl-1H-pyrazol-5-yl)-5-fluoropyridin-4-yl)oxy)azetidin-1-yl)(5-(2-methylthiazol-5-yl)-4,5-dihydro-1H-pyrazol-1-yl) methanone]: 0.1 to 100 nM. The figure for `Cc1ncc([C@@H]2CC=NN2C(=O)N2CC(Oc3cc(-c4c(C)cnn4C)ncc3F)C2)s1` [Compound 108, (S)-(3-((2-(1,4-dimethyl-1H-pyrazol-5-yl)-5-fluoropyridin-4-yl)oxy)azetidin-1-yl)(5-(2-methylthiazol-5-yl)-4,5-dihydro-1H-pyrazol-1-yl)methanone] is 0.1 to 100 nM; for `Cc1ncc(C2CC=NN2C(=O)N2CC(Oc3nc(-c4c(C)cnn4C)ncc3F)C2)s1` (centres unmarked) [Compound 109, (3-((2-(1,4-dimethyl-1H-pyrazol-5-yl)-5-fluoropyrimidin-4-yl)oxy)azetidin-1-yl)(5-(2-methylthiazol-5-yl)-4,5-dihydro-1H-pyrazol-1-yl)methanone] it is 0.1 to 100 nM.

Take `Cc1c(-c2cc(OC3CN(C(=O)N4N=CCC4c4cc(F)cc(F)c4F)C3)c(F)cn2)nn(C)c1C(N)=O` (centres unmarked) [Compound 110, 3-(5-fluoro-4-((1-(5-(2,3,5-trifluorophenyl)-4,5-dihydro-1H-pyrazole-1-carbonyl)azetidin-3-yl)oxy)pyridin-2-yl)-1,4-dimethyl-1H-pyrazole-5-carboxamide]: the EC50 lay within 0.1 to 100 nM. Take `Cc1c(-c2cc(OC3CN(C(=O)N4N=CC[C@H]4c4cccc(F)c4)C3)c(F)cn2)nn(C)c1C(N)=O` [Compound 111, (S)-3-(5-fluoro-4-((1-(5-(3-fluorophenyl)-4,5-dihydro-1H-pyrazole-1-carbonyl)azetidin-3-yl)oxy)pyridin-2-yl)-1,4-dimethyl-1H-pyrazole-5-carb oxamide]: the EC50 fell in the range of 0.1 to 100 nM. Next, `Cc1nn(-c2cc(OC3CN(C(=O)N4N=CCC4c4cc(F)cc(F)c4F)C3)c(F)cn2)c(C)c1S(N)(=O)=O` (centres unmarked) [Compound 112, 1-(5-fluoro-4-((1-(5-(2,3,5-trifluorophenyl)-4,5-dihydro-1H-pyrazole-1-carbonyl)azetidin-3-yl)oxy)pyridin-2-yl)-3,5-dimethyl-1H-pyrazole-4-sulfonamide]: 0.1 to 100 nM; `Cc1nn(-c2cc(OC3CN(C(=O)N4N=CC[C@H]4c4ccccc4)C3)c(F)cn2)c(C)c1S(N)(=O)=O` [Compound 113, (S)-1-(5-fluoro-4-((1-(5-phenyl-4,5-dihydro-1H-pyrazole-1-carbonyl)azetidin-3-yl)oxy)pyridin-2-yl)-3,5-dimethyl-1H-pyrazole-4-sulfonamide]: 0.1 to 100 nM. Next, `Cc1nn(-c2cc(OC3CN(C(=O)N4N=CC[C@H]4c4cccc(F)c4)C3)c(F)cn2)c(C)c1S(N)(=O)=O` [Compound 114, (S)-1-(5-fluoro-4-((1-(5-(3-fluorophenyl)-4,5-dihydro-1H-pyrazole-1-carbonyl)azetidin-3-yl)oxy)pyridin-2-yl)-3,5-dimethyl-1H-pyrazole-4-sulfonamide]: 0.1 to 100 nM; `Cc1c(N)nn(C)c1-c1cc(OC2CN(C(=O)N3N=CCC3c3cc(F)cc(F)c3F)C2)c(F)cn1` (centres unmarked) [Compound 115, (3-((2-(3-amino-1,4-dimethyl-1H-pyrazol-5-yl)-5-fluoropyridin-4-yl)oxy)azetidin-1-yl)(5-(2,3,5-trifluorophenyl)-4,5-dihydro-1H-pyrazol-1-yl) methanone]: 0.1 to 100 nM.

`Cc1cnn(C)c1-c1cc(OC2CN(C(=O)N3N=CCC3c3cc(F)cc(F)c3F)C2)c(F)cn1` (centres unmarked) [Compound 116, (3-((2-(1,4-dimethyl-1H-pyrazol-5-yl)-5-fluoropyridin-4-yl)oxy)azetidin-1-yl)(5-(2,3,5-trifluorophenyl)-4,5-dihydro-1H-pyrazol-1-yl)methanone]: the EC50 lay within 0.1 to 100 nM. The figure for `Cc1nn(-c2cc(OC3CN(C(=O)N4N=CCC4c4cc(F)cc(Cl)c4)C3)c(F)cn2)c(C)c1C(N)=O` (centres unmarked) [Compound 117, 1-(4-((1-(5-(3-chloro-5-fluorophenyl)-4,5-dihydro-1H-pyrazole-1-carbonyl)azetidin-3-yl)oxy)-5-fluoropyridin-2-yl)-3,5-dimethyl-1H-pyrazole-4-carboxamide] is 0.1 to 100 nM. Next, `Cc1cc(F)cc(C2CC=NN2C(=O)N2CC(Oc3cc(-n4nc(C)c(C(N)=O)c4C)ncc3F)C2)c1` (centres unmarked) [Compound 118, 1-(5-fluoro-4-((1-(5-(3-fluoro-5-methylphenyl)-4,5-dihydro-1H-pyrazole-1-carbonyl)azetidin-3-yl)oxy)pyridin-2-yl)-3,5-dimethyl-1H-pyrazole-4-carboxamide]: 0.1 to 100 nM; `Cc1nc(C)c(C2CC=NN2C(=O)N2CC(Oc3cc(-c4c(C)cnn4C)ncc3F)C2)s1` (centres unmarked) [Compound 119, (3-((2-(1,4-dimethyl-1H-pyrazol-5-yl)-5-fluoropyridin-4-yl)oxy)azetidin-1-yl)(5-(2,4-dimethylthiazol-5-yl)-4,5-dihydro-1H-pyrazol-1-yl)methanone]: 100 to 1000 nM; `Cc1nc([C@@H]2CC=NN2C(=O)N2CC(Oc3cc(-c4c(C)cnn4C)ncc3F)C2)cs1` [Compound 120, (S)-(3-((2-(1,4-dimethyl-1H-pyrazol-5-yl)-5-fluoropyridin-4-yl)oxy)azetidin-1-yl)(5-(2-methylthiazol-4-yl)-4,5-dihydro-1H-pyrazol-1-yl)methanone]: 0.1 to 100 nM. The figure for `Cc1nc([C@H]2CC=NN2C(=O)N2CC(Oc3cc(-c4c(C)cnn4C)ncc3F)C2)cs1` [Compound 121, (R)-(3-((2-(1,4-dimethyl-1H-pyrazol-5-yl)-5-fluoropyridin-4-yl)oxy)azetidin-1-yl)(5-(2-methylthiazol-4-yl)-4,5-dihydro-1H-pyrazol-1-yl)methanone] is 1000 to 10000 nM; for `Cc1nc(C2CC=NN2C(=O)N2CC(Oc3nc(-c4c(C)cnn4C)c(F)cc3F)C2)cs1` (centres unmarked) [Compound 122, (3-((6-(1,4-dimethyl-1H-pyrazol-5-yl)-3,5-difluoropyridin-2-yl)oxy)azetidin-1-yl)(5-(2-methylthiazol-4-yl)-4,5-dihydro-11H-pyrazol-1-yl)methanone] it is 0.1 to 100 nM; for `Cc1ncc(C2CC=NN2C(=O)N2CC(Oc3nc(-c4c(C)cnn4C)c(F)cc3F)C2)s1` (centres unmarked) [Compound 123, (3-((6-(1,4-dimethyl-1H-pyrazol-5-yl)-3,5-difluoropyridin-2-yl)oxy)azetidin-1-yl)(5-(2-methylthiazol-5-yl)-4,5-dihydro-1H-pyrazol-1-yl)methanone] it is 0.1 to 100 nM. With `Cc1nn(-c2cc(OC3CN(C(=O)N4N=CC[C@H]4c4cc(F)cc(F)c4F)C3)c(F)cn2)c(C)c1S(N)(=O)=O` [Compound 124, (S)-1-(5-fluoro-4-((1-(5-(2,3,5-trifluorophenyl)-4,5-dihydro-1H-pyrazole-1-carbonyl)azetidin-3-yl)oxy)pyridin-2-yl)-3,5-dimethyl-1H-pyrazole-4-sulfonamide], the EC50 fell in the range of 0.1 to 100 nM. For `Cc1nn(-c2cc(OC3CN(C(=O)N4N=CC[C@@H]4c4cc(F)cc(F)c4F)C3)c(F)cn2)c(C)c1S(N)(=O)=O` [Compound 125, (R)-1-(5-fluoro-4-((1-(5-(2,3,5-trifluorophenyl)-4,5-dihydro-1H-pyrazole-1-carbonyl)azetidin-3-yl)oxy)pyridin-2-yl)-3,5-dimethyl-1H-pyrazole-4-sulfonamide], the concentration giving a half-maximal response (EC50) was 100 to 1000 nM. Next, `Cc1c(-c2cc(OC3CN(C(=O)N4N=CC[C@H]4c4cc(F)cc(F)c4F)C3)c(F)cn2)nn(C)c1C(N)=O` [Compound 126, 3-(5-fluoro-4-((1-(5-(2,3,5-trifluorophenyl)-4,5-dihydro-1H-pyrazole-1-carbonyl)azetidin-3-yl)oxy)pyridin-2-yl)-1,4-dimethyl-1H-pyrazole-5-carboxamide]: 0.1 to 100 nM; `Cc1nc(C2CC=NN2C(=O)N2CC(Oc3cc(-c4c(C)cnn4C)ncc3Cl)C2)cs1` (centres unmarked) [Compound 127, (3-((5-chloro-2-(1,4-dimethyl-1H-pyrazol-5-yl)pyridin-4-yl)oxy)azetidin-1-yl)(5-(2-methylthiazol-4-yl)-4,5-dihydro-1H-pyrazol-1-yl)methanone]: 1000 to 10000 nM; `Cc1nc(C2CC=NN2C(=O)N2CC(Oc3cc(-c4c(C)cnn4C)ncc3F)C2)c(C)s1` (centres unmarked) [Compound 128, (3-((2-(1,4-dimethyl-1H-pyrazol-5-yl)-5-fluoropyridin-4-yl)oxy)azetidin-1-yl)(5-(2,5-dimethylthiazol-4-yl)-4,5-dihydro-1H-pyrazol-1-yl)methanone]: 100 to 1000 nM.

With `Cc1cnc(C2CC=NN2C(=O)N2CC(Oc3nc(-c4c(C)cnn4C)c(F)cc3F)C2)s1` (centres unmarked) [Compound 129, (3-((6-(1,4-dimethyl-1H-pyrazol-5-yl)-3,5-difluoropyridin-2-yl)oxy)azetidin-1-yl)(5-(5-methylthiazol-2-yl)-4,5-dihydro-1H-pyrazol-1-yl)methanone], the EC50 is 0.1 to 100 nM. Turning to `Cc1cc(F)cc(C2CC=NN2C(=O)N2CC(Oc3cc(-c4c(C)cnn4C)ncc3F)C2)c1` (centres unmarked) [Compound 130, (3-((2-(1,4-dimethyl-1H-pyrazol-5-yl)-5-fluoropyridin-4-yl)oxy)azetidin-1-yl)(5-(3-fluoro-5-methylphenyl)-4,5-dihydro-1H-pyrazol-1-yl)methanone], the concentration for a half-maximal effect (EC50) lay in the range of 0.1 to 100 nM.
